Measurements published in patent US20220062299A1, “USE OF GLUCOCORTICOID STEROIDS IN PREVENTING AND TREATING CONDITIONS OF MUSCLE WASTING, AGING AND METABOLIC DISORDER” (NORTHWESTERN UNIVERSITY, priority 2018, published 2022).

How the values were obtained:
[1] = test system: Duchenne muscular dystrophy boys; design: dose or concentration left out as unconfirmed; conditions: cited from earlier work
[2] = test system: mdx; Dysf-null; Sgcg-null mice; experiment: Once-weekly glucocorticoids in three murine models of muscle disease; assay type: in vivo, mouse; conditions: 1 mg/kg once-weekly, contrary to daily dosing
Source text: Glucocorticoid steroids are widely prescribed drugs for chronic inflammatory conditions, and their daily intake generally correlates with muscle wasting and weakness, osteoporosis, obesity and metabolic disorders. […] (Quattrocelli et al, J Clin Invest 2017; Quattrocelli et al, Am J Pathol 2017; Quattrocelli et al., JCI Insight. 2019 Dec. 19; 4(24). pii: 132402. doi: 10.1172/jci.insight.132402).

Structure (SMILES): CC/C=C\C/C=C\C/C=C\C/C=C\C/C=C\C/C=C\CCC(=O)NCCNC(=O)c1ccccc1O [Edasalonexent]
- muscle disease progression [1]: delayed

Structure (SMILES): CC(=O)OCC(=O)[C@@]12N=C(C)O[C@@H]1C[C@H]1[C@@H]3CCC4=CC(=O)C=C[C@]4(C)[C@H]3[C@@H](O)C[C@@]12C [deflazacort]
- muscle force and mass [2]: improved
